From patent EP4119547A1, “TRIAZOLE COMPOUNDS FOR THE CONTROL OF INVERTEBRATE PESTS” (priority 2021, dated 2023)

Assays:
Assay type in all cases: in vivo
[1] = test system: Diamond back moth (Plutella xylostella); experiment: Diamond back moth leaf-dip test on cabbage leaves; conditions: cabbage leaves dipped, 3rd instar larvae, 72 hours after treatment, read-out: mortality in comparison with untreated controls
Method: The active compound was dissolved at the desired concentration in a mixture of 1:1 (vol:vol) distilled water: acetone. Surfactant (Kinetic HV) was added at a rate of 0.01% (vol/vol). The test solution was prepared on the day of use.
Leaves of cabbage were dipped in test solution and air-dried. Treated leaves were placed in petri dishes lined with moist filter paper and inoculated with ten 3rd instar larvae. Mortality was recorded 72 hours after treatment. Feeding damages were also recorded using a scale of 0-100%.

[2] = test system: Green Peach Aphid (Myzus persicae); experiment: Green peach aphid systemic test, artificial diet under membrane in 96-well microtiter plates; conditions: 72 h, adult aphids on treated artificial diet, 3 days, read-out: mortality in comparison with untreated controls
Text: For evaluating control of green peach aphid (Myzus persicae) through systemic means, the test unit consisted of 96-well-microtiter plates containing liquid artificial diet under an artificial mem brane.
The compounds were formulated using a solution containing 75% v/v water and 25% v/v DMSO. Different concentrations of formulated compounds were pipetted into the aphid diet, using a custom built pipetter, at two replications.
After application, 5 - 8 adult aphids were placed on the artificial membrane inside the microtiter plate wells. The aphids were then allowed to suck on the treated aphid diet and incubated at about 23 ± 1°C and about 50 ± 5 % relative humidity for 3 days. Aphid mortality and fecundity was then visually assessed.

[3] = test system: Tobacco budworm (Heliothis virescens); experiment: Tobacco budworm test, insect diet with eggs in 96-well microtiter plates; conditions: 120 h, egg and larval mortality, 5 days, read-out: mortality in comparison with untreated controls
Method: For evaluating control of tobacco budworm (Heliothis virescens), the test unit consisted of 96-well-microtiter plates containing an insect diet and 15-25 H. virescens eggs.
The compounds were formulated using a solution containing 75% v/v water and 25% v/v DMSO. Different concentrations of formulated compounds were sprayed onto the insect diet at 10 µl, using a custom-built micro atomizer, at two replications.
After application, microtiter plates were incubated at about 28 ± 1°C and about 80 ± 5 % relative humidity for 5 days. Egg and larval mortality was then visually assessed.

[4] = test system: Yellow fever mosquito (Aedes aegypti); experiment: whole plant or invertebrate; conditions: 48 h, larval mortality, 2 days, read-out: mortality in comparison with untreated controls
Method: For evaluating control of yellow fever mosquito (Aedes aegypti) the test unit consisted of 96-well-microtiter plates containing 200µl of tap water per well and 5-15 freshly hatched A. aegypti larvae.
The active compounds were formulated using a solution containing 75% (v/v) water and 25% (v/v) DMSO. Different concentrations of formulated compounds or mixtures were sprayed onto the insect diet at 2.5µl, using a custom-built micro atomizer, at two replications.
After application, microtiter plates were incubated at 28 ± 1°C, 80 ± 5 % RH for 2 days. Larval mortality was then visually assessed.

[5] = test system: Boll weevil (Anthonomus grandis); experiment: Boll weevil test, insect diet with eggs in 96-well microtiter plates; conditions: 120 h, egg and larval mortality, 5 days, read-out: mortality in comparison with untreated controls
Method: For evaluating control of boll weevil (Anthonomus grandis), the test unit consisted of 96-well-microtiter plates containing an insect diet and 5-10 A. grandis eggs.
The compounds were formulated using a solution containing 75% v/v water and 25% v/v DMSO. Different concentrations of formulated compounds were sprayed onto the insect diet at 5 µl, using a custom-built micro atomizer, at two replications.
After application, microtiter plates were incubated at about 25 ± 1°C and about 75 ± 5 % relative humidity for 5 days. Egg and larval mortality was then visually assessed.

[6] = test system: Orchid thrips (Dichromothrips corbetti); experiment: Orchid thrips floral-immersion test; conditions: adult thrips on dipped orchid petals, 72 hours after treatment, read-out: mortality in comparison with untreated controls
Method: Dichromothrips corbetti adults used for bioassay were obtained from a colony maintained continuously under laboratory conditions. For testing purposes, the test compound is diluted in a 1:1 mixture of acetone:water (vol:vol), plus Kinetic HV at a rate of 0.01% v/v.
Thrips control potency of each compound was evaluated by using a floral-immersion technique. All petals of individual, intact orchid flowers were dipped into treatment solution and allowed to dry in Petri dishes. Treated petals were placed into individual re-sealable plastic along with about 20 adult thrips. All test arenas were held under continuous light and a temperature of about 28°C for duration of the assay. After 3 days, the numbers of live thrips were counted on each petal. The percent mortality was recorded 72 hours after treatment.

CC(=NO)n1ncnc1C(C)NC(=O)c1cc(C(F)(F)F)cc(C(F)(F)F)c1 (stereo not shown) [I-1, N-[1-[2-[N-hydroxy-C-methyl-carbonimidoyl]-1,2,4-triazol-3-yl]ethyl]-3,5-bis(trifluoromethyl)benzamide]
≥ 75%: mortality at 300 ppm [1] | mortality at 2500 ppm [2] | mortality at 2500 ppm [3] | mortality at 2500 ppm [4]

CO/N=C(/C)n1ncnc1C(C)NC(=O)c1cc(C(F)(F)F)cc(C(F)(F)F)c1 (stereo not shown) [I-3, N-[1-[2-[(Z)-N-methoxy-C-methyl-carbonimidoyl]-1,2,4-triazol-3-yl]ethyl]-3,5-bis(trifluoromethyl)benzamide]
≥ 75%: mortality at 300 ppm [1] | mortality at 2500 ppm [2] | mortality at 2500 ppm [3] | mortality at 2500 ppm [5] | mortality at 300 ppm [6] | mortality at 2500 ppm [4]

CO/N=C(\C)n1ncnc1C(C)NC(=O)c1cc(C(F)(F)F)cc(C(F)(F)F)c1 (stereo not shown) [I-4, N-[1-[2-[(E)-N-methoxy-C-methyl-carbonimidoyl]-1,2,4-triazol-3-yl]ethyl]-3,5-bis(trifluoromethyl)benzamide]
≥ 75%: mortality at 300 ppm [1] | mortality at 2500 ppm [2] | mortality at 2500 ppm [3] | mortality at 2500 ppm [5] | mortality at 300 ppm [6] | mortality at 2500 ppm [4]
